Source: patent publication US20220152214A1, “CANCER TREATMENT WITH ROR1 ANTIBODY IMMUNOCONJUGATES” (VelosBio Inc., priority 2019, published 2022)
Where a SMILES comes first, the peptide text is derived from it. [ ]: non-standard residue; d: D form. The star is where a group is joined. Dolaproine = CO[C@@H]([C@@H]1CCCN1)[C@@H](C)C(=O)O; Dil = CC[C@H](C)[C@H](NC)[C@@H](CC(=O)O)OC; X1 = C[C@@H](N*)[C@@H](O)c1ccccc1; NMeV = CN[C@H](C(=O)O)C(C)C

Experiment: Plasma pharmacokinetics of total antibody, total ADC-A and MMAE after ADC-A IV infusion
Type: in vivo, human
Design: Cmax/Dose / AUClast/Dose: unit not given beside the values
Conditions: plasma analyte = label
Procedure: The following describes a protocol for evaluating the safety, pharmacokinetics, pharmacodynamics, immunogenicity, and efficacy of a ROR1 immunoconjugate (ADC-A) across a range of dose levels when administered to subjects with previously treated relapsed or refractory CLL/SLL, MCL, FL, MZL, DLBCL, RTL, BL, LPL/WM, T cell NHL, ALL, or AML. ADC-A is administered intravenously (IV) in repeated 3-week cycles with a drug infusion on Day 1 of each cycle (Q1/3W [Schedule 1]); in repeated 3-week cycles with drug infusions on Days 1 and 8 of each cycle (Q2/3W [Schedule 2]); or in repeated 4-week cycles with drug infusions on Days 1, 8, and 15 of each cycle (Q3/4W [Schedule 3]) over a planned infusion time of ˜30 minutes. Infusion times may be extended as necessary to accommodate individual subject tolerance of treatment.

[1] = after ADC-A 0.5 mg/kg IV Q1/3W (n = 1)
[2] = after ADC-A 1.0 mg/kg IV Q1/3W (n = 3)
[3] = after ADC-A 1.5 mg/kg IV Q1/3W (n = 3)
[4] = after ADC-A 2.25 mg/kg IV Q1/3W (n = 9)
[5] = after ADC-A 2.5 mg/kg IV Q1/3W (n = 4)

**Q.** For `CC[C@H](C)[C@@H]([C@@H](CC(=O)N1CCC[C@H]1[C@H](OC)[C@@H](C)C(=O)N[C@H](C)[C@@H](O)c1ccccc1)OC)N(C)C(=O)[C@@H](NC(=O)[C@@H](NC)C(C)C)C(C)C` [MMAE, monomethyl auristatin E] (H-[NMeV]V[Dil][Dolaproine]-X1), which “Increases in Cmax and AUC with dose” value (ADC-A 0.5 to 2.5 mg/kg IV Q1/3W) is on record?
**A.** The value was “somewhat less than dose-proportional”.

**Q.** And the AUClast [1]?
**A.** The AUClast was 271 ng·h/mL.

**Q.** And the AUClast/Dose [1]?
**A.** Its AUClast/Dose is 0.5420.

**Q.** What about the Cmax [1] of the same compound?
**A.** Its Cmax is 1.15 ng/mL.

**Q.** And the Cmax/Dose [1]?
**A.** The Cmax/Dose was 0.0023.

**Q.** What about the Tmax [1] of the same compound?
**A.** Its Tmax is 48 h.

**Q.** What about the AUClast [2] of the same compound?
**A.** The AUClast was 467 ng·h/mL.

**Q.** And the AUClast/Dose [2]?
**A.** Its AUClast/Dose is 0.4673.

**Q.** And the Cmax [2]?
**A.** The Cmax was 2.66 ng/mL.

**Q.** And the Cmax/Dose [2]?
**A.** Its Cmax/Dose is 0.0027.

**Q.** What about the Tmax [2] of the same compound?
**A.** The Tmax was 48 h.

**Q.** And the AUClast [3]?
**A.** The AUClast was 390 ng·h/mL.

**Q.** And the AUClast/Dose [3]?
**A.** Its AUClast/Dose is 0.2600.

**Q.** And the Cmax [3]?
**A.** Its Cmax is 1.66 ng/mL.

**Q.** What about the Cmax/Dose [3] of the same compound?
**A.** Its Cmax/Dose is 0.0011.

**Q.** What about the Tmax [3] of the same compound?
**A.** Its Tmax is 88.7 h.

**Q.** What about the AUClast [4] of the same compound?
**A.** Its AUClast is 698 ng·h/mL.

**Q.** And the AUClast/Dose [4]?
**A.** Its AUClast/Dose is 0.3102.

**Q.** And the Cmax [4]?
**A.** The Cmax was 4.43 ng/mL.

**Q.** And the Cmax/Dose [4]?
**A.** Its Cmax/Dose is 0.0020.

**Q.** What about the Tmax [4] of the same compound?
**A.** Its Tmax is 75.1 h.

**Q.** And the AUClast [5]?
**A.** Its AUClast is 994.8 ng·h/mL.

**Q.** What about the AUClast/Dose [5] of the same compound?
**A.** Its AUClast/Dose is 0.3979.

**Q.** What about the Cmax [5] of the same compound?
**A.** The Cmax was 6.7 ng/mL.

**Q.** What about the Cmax/Dose [5] of the same compound?
**A.** Its Cmax/Dose is 0.0027.

**Q.** And the Tmax [5]?
**A.** Its Tmax is 78.5 h.
